From publication PMC8286840, “Identifying SARS-CoV-2 antiviral compounds by screening for small molecule inhibitors of Nsp3 papain-like protease” (Biochemical Journal, 2021) come the findings set out here.

Counter-ions that a name gives are not always drawn. Like-named read-outs stand apart in the source and are kept apart here.

In assay [1] the target is T1, SARS-CoV-2 PLpro (nsp3 1564–1878) (Severe acute respiratory syndrome coronavirus 2, UniProt P0DTD1). As to the kind of experiment: biochemical. On the set-up: FRET-quenched peptide (Pro3) cleavage by PLpro, 10 min pre-incubation, slope over 20 min, normalised to no-compound control. Particulars: low concentration screen, read-out: % of control remaining.
Assay [2] has as its target T1, SARS-CoV-2 PLpro (nsp3 1564–1878). As to the kind of experiment: biochemical. Set-up: FRET-quenched peptide (Pro3) cleavage by PLpro, 10 min pre-incubation, slope over 20 min, normalised to no-compound control. Particulars: high concentration screen, read-out: % of control remaining.

Regarding `C#C[C@]1(O)CC[C@H]2[C@@H]3CCC4=CC(=O)CC[C@@H]4[C@H]3CC[C@@]21CC` [Levonorgestrel], in assay [1] (Well no.=2262), the remaining activity at 1.25 µM worked out at 93.9%. Moreover, the remaining activity at 3.75 µM in assay [2] (Well no.=2262) was determined as 102%.
In the case of `C[C@@H]1CC(=O)NN=C1c1ccc(NN=C(C#N)C#N)cc1` [Levosimendan], the remaining activity at 1.25 µM in assay [1] (Well no.=4902) turned out to be 101%. For the same molecule, the remaining activity at 3.75 µM in assay [2] (Well no.=4902) came to 97.8%.
For the molecule `CCN1CCC[C@H]1CNC(=O)c1cc(S(N)(=O)=O)ccc1OC` [Levosulpiride], the remaining activity at 1.25 µM in assay [1] (Well no.=6851) stood at 98%. The remaining activity at 3.75 µM in assay [2] (Well no.=6851) turned out to be 88.1%.
Consider `CC(=O)CCC(=O)O` [Levulinic acid], for which the remaining activity at 1.25 µM in assay [1] (Well no.=6545) is 101%. In assay [2] (Well no.=6545), the remaining activity at 3.75 µM was found to be 98%.
As for `CCN(CC)CC(=O)Nc1c(C)cccc1C` [Lidocaine hydrochloride], in assay [1] (Well no.=883), the remaining activity at 1.25 µM came out at 104%. For the same molecule, the remaining activity at 3.75 µM in assay [2] (Well no.=883) was 108%.
In the case of `OCc1ccc(-c2nn(Cc3ccccc3)c3ccccc23)o1` [Lificiguat], the remaining activity at 1.25 µM in assay [1] (Well no.=7713) turned out to be 99%. For the same molecule, the remaining activity at 3.75 µM in assay [2] (Well no.=7713) is 82.8%.
Regarding `CS(=O)(=O)c1cccc(C[C@H](NC(=O)c2c(Cl)cc3c(c2Cl)CCN(C(=O)c2ccc4ccoc4c2)C3)C(=O)O)c1` [Lifitegrast], the remaining activity at 1.25 µM in assay [1] (Well no.=8038) came out at 94.5%. The remaining activity at 3.75 µM in assay [2] (Well no.=8038) was found to be 95.3%.
On to `CC1(C)O[C@H]2CC(=O)OC[C@]23[C@H]2CC[C@@]4(C)[C@H](c5ccoc5)OC(=O)[C@H]5O[C@]54[C@]2(C)C(=O)C[C@@H]13` [Limonin], for which the remaining activity at 1.25 µM in assay [1] (Well no.=3655) was determined as 99.2%. For the same molecule, in assay [2] (Well no.=3655), the remaining activity at 3.75 µM was 102%.
Consider `CC#CCn1c(N2CCC[C@@H](N)C2)nc2c1c(=O)n(Cc1nc(C)c3ccccc3n1)c(=O)n2C` [Linagliptin (BI-1356)], for which the remaining activity at 1.25 µM in assay [1] (Well no.=4883) came out at 97%. Also, in assay [2] (Well no.=4883), the remaining activity at 3.75 µM was found to be 93.9%.
As to `CCC[C@@H]1C[C@@H](C(=O)N[C@@H]([C@H]2O[C@H](SC)[C@H](O)[C@@H](O)[C@H]2O)[C@@H](C)O)N(C)C1` [Lincomycin], the remaining activity at 1.25 µM in assay [1] (Well no.=1549) was determined as 102%; in assay [1] (Well no.=3377), 96.3%. In addition, the remaining activity at 3.75 µM in assay [2] (Well no.=1549) was found to be 105%; in assay [2] (Well no.=3377) it was 96.8%.
Consider `CC(=O)NC[C@H]1CN(c2ccc(N3CCOCC3)c(F)c2)C(=O)O1` [Linezolid], for which the remaining activity at 1.25 µM in assay [1] (Well no.=1782) stood at 102%. Moreover, in assay [2] (Well no.=1782), the remaining activity at 3.75 µM came to 98.8%.
For the molecule `CCCCC/C=C\C/C=C\CCCCCCCC(N)=O` [Linoleamide], in assay [1] (Well no.=4338), the remaining activity at 1.25 µM worked out at 101%. Further, the remaining activity at 3.75 µM in assay [2] (Well no.=4338) was found to be 92.5%.
For the molecule `CCCCC/C=C\C/C=C\CCCCCCCC(=O)O` [Linoleic acid], the remaining activity at 1.25 µM in assay [1] (Well no.=4349) came to 103%; in assay [1] (Well no.=7029), 94.8%. Moreover, the values for the remaining activity at 3.75 µM in assay [2] (Well no.=4349) and in assay [2] (Well no.=7029) were 101% and 85.7%, respectively.
Regarding `CC/C=C\C/C=C\C/C=C\CCCCCCCC(=O)O` [Linolenic acid], the remaining activity at 1.25 µM in assay [1] (Well no.=4305) was determined as 103%; in assay [1] (Well no.=4358), 101%. Also, the figures for the remaining activity at 3.75 µM in assay [2] (Well no.=4305) and in assay [2] (Well no.=4358) were 102% and 100%, respectively.
Take `O=C1N(c2ccccc2)c2ccccc2C1(Cc1ccncc1)Cc1ccncc1` [Linopirdine]: the remaining activity at 1.25 µM in assay [1] (Well no.=822) stood at 104%. Also, the remaining activity at 3.75 µM in assay [2] (Well no.=822) stood at 105%.
`C[C@@H](C(=O)Nc1ccc(Cl)cc1)[C@H]1CC[C@@H](c2ccnc3ccc(F)cc32)CC1` [Linrodostat]: in assay [1] (Well no.=8267), the remaining activity at 1.25 µM stood at 97.9%. Further, the remaining activity at 3.75 µM in assay [2] (Well no.=8267) amounted to 99.1%.
As for `O=C(O)CCCC[C@@H]1CCSS1` [Lipoic acid], the remaining activity at 1.25 µM in assay [1] (Well no.=6915) is 105%. Besides, in assay [2] (Well no.=6915), the remaining activity at 3.75 µM amounted to 104%.
Regarding `Clc1cccc(CN=C2Nc3ccccc3NC23CCNCC3)c1` [Liproxstatin-1], the remaining activity at 1.25 µM in assay [1] (Well no.=5945) was found to be 98.7%; in assay [1] (Well no.=6402), 94.5%. For the same molecule, the remaining activity at 3.75 µM in assay [2] (Well no.=5945) was 97.6%; in assay [2] (Well no.=6402) it was 93.9%.
`COc1cccc(N(C)C(=S)Oc2ccc3c(c2)CCCC3)n1` [Liranaftate]: the remaining activity at 1.25 µM in assay [1] (Well no.=4672) amounted to 101%. In addition, the remaining activity at 3.75 µM in assay [2] (Well no.=4672) amounted to 101%.
For the molecule `NCCCC[C@H](N[C@@H](CCc1ccccc1)C(=O)O)C(=O)N1CCC[C@H]1C(=O)O` [Lisinopril (dihydrate)], in assay [1] (Well no.=7736), the remaining activity at 1.25 µM was determined as 95.6%. The remaining activity at 3.75 µM in assay [2] (Well no.=7736) came to 96.7%.
As to `NCCCC[C@H](N[C@@H](CCc1ccccc1)C(=O)O)C(=O)N1CCC[C@H]1C(=O)O` [Lisinopril], the remaining activity at 1.25 µM in assay [1] (Well no.=2270) came to 91.3%. Further, the remaining activity at 3.75 µM in assay [2] (Well no.=2270) was found to be 93.2%.
For `C[C@H](CCC(=O)O)[C@H]1CC[C@H]2[C@@H]3CC[C@@H]4C[C@H](O)CC[C@]4(C)[C@H]3CC[C@]12C` [Lithocholic acid], the remaining activity at 1.25 µM in assay [1] (Well no.=4646) turned out to be 95.7%; in assay [1] (Well no.=7307), 97.4%. For the same molecule, the results for the remaining activity at 3.75 µM in assay [2] (Well no.=4646) and in assay [2] (Well no.=7307) were 93.6% and 89.6%, respectively.
Take `Cc1ccc(F)cc1C(=O)Nc1ccc(C(=O)N2Cc3cccn3Cc3ccccc32)c(Cl)c1` [Lixivaptan]: the remaining activity at 1.25 µM in assay [1] (Well no.=6957) is 91.5%. In addition, the remaining activity at 3.75 µM in assay [2] (Well no.=6957) was 88.9%.
`CN1[C@@H](CC(=O)c2ccccc2)CCC[C@H]1C[C@H](O)c1ccccc1` [Lobeline (hydrochloride)]: in assay [1] (Well no.=8326), the remaining activity at 1.25 µM came out at 104%. The remaining activity at 3.75 µM in assay [2] (Well no.=8326) is 100%.
In the case of `N#Cc1cc(NC(=O)C(=O)O)c(Cl)c(NC(=O)C(=O)O)c1` [Lodoxamide], the remaining activity at 1.25 µM in assay [1] (Well no.=8241) came out at 107%. In assay [2] (Well no.=8241), the remaining activity at 3.75 µM was determined as 105%.
In the case of `CC(Oc1c(Cl)cccc1Cl)C1=NCCN1` (stereo not shown) [Lofexidine.HCl], the remaining activity at 1.25 µM in assay [1] (Well no.=1971) worked out at 101%. The remaining activity at 3.75 µM in assay [2] (Well no.=1971) was 102%.
Take `CCn1cc(C(=O)O)c(=O)c2cc(F)c(N3CCNC(C)C3)c(F)c21` (stereo not shown) [Lomefloxacin hydrochloride]: in assay [1] (Well no.=929), the remaining activity at 1.25 µM came to 98.7%. The remaining activity at 3.75 µM in assay [2] (Well no.=929) is 94.8%.
Turning to `CCn1cc(C(=O)O)c(=O)c2cc(F)c(N3CCNC(C)C3)c(F)c21` (stereo not shown) [Lomefloxacin], the remaining activity at 1.25 µM in assay [1] (Well no.=2272) was 95.3%. In addition, the remaining activity at 3.75 µM in assay [2] (Well no.=2272) was 96.1%.
Consider `Nc1nc(OCc2cc(Br)cs2)c2[nH]cnc2n1` [Lomeguatrib], for which the remaining activity at 1.25 µM in assay [1] (Well no.=5885) stood at 105%. For the same molecule, in assay [2] (Well no.=5885), the remaining activity at 3.75 µM is 105%.
Regarding `COc1ccc(CN2CCN(C(c3ccc(F)cc3)c3ccc(F)cc3)CC2)c(OC)c1OC` [Lomerizine], the remaining activity at 1.25 µM in assay [1] (Well no.=1941) came to 98.3%. Further, the remaining activity at 3.75 µM in assay [2] (Well no.=1941) turned out to be 100%.
